# Experimental data taken from ChEMBL document CHEMBL1201862, “PubChem BioAssay data set” (2004).
# Active and inactive are the calls of the source.
# How the values were obtained:
# [1] = biological target: T1, Replicative DNA helicase DnaB (Mycobacterium tuberculosis, UniProt P9WMR3); test: DnaB intein splicing inhibitors, dose response, biochemical, cell-free fluorescence (AID 449749); assay type: functional
# T1 sequence (P9WMR3 whole entry): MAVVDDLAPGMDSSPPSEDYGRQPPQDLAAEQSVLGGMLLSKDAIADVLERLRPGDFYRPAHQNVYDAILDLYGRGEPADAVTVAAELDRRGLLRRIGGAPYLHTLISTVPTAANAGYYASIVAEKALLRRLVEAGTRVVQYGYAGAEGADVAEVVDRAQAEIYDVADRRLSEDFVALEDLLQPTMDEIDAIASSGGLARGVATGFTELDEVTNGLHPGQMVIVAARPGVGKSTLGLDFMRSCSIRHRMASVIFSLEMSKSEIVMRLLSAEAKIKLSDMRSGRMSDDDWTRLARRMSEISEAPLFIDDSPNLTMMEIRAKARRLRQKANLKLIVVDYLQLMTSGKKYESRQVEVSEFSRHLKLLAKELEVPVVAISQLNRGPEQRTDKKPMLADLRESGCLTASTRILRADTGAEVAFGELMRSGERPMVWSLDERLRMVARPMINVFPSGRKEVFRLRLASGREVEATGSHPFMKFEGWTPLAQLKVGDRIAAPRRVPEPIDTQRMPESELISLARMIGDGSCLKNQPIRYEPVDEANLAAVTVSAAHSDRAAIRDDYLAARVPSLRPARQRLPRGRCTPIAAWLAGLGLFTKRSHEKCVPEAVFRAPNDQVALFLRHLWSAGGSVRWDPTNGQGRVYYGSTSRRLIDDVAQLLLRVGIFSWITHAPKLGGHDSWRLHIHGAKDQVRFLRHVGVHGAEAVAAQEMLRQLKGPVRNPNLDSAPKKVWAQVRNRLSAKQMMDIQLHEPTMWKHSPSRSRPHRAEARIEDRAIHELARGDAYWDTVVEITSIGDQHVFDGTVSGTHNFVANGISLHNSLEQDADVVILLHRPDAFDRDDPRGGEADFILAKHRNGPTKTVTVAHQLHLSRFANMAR
# [2] = NIH-3T3 fibroblast cytotoxicity, dose response, cytotoxicity control, cell-based, fluorescence, Alamar Blue, secondary assay (AID 2327); assay type: functional;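 also: NIH-3T3 mouse fibroblasts cultured with fluconazole at 8 µg/mL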
# [3] = Luminescence Cell-Based Dose Retest to Confirm Inhibitors of Cancer Stem Cells. [Related pubchem assays (depositor defined):AID2717, AID2721]; assay type: functional; conditions: Homo sapiens
# cells [4] = assay type: functional, cell-based
# [5] = biological target: T2, Rac GTPase-activating protein 1 (Homo sapiens, UniProt Q9H0H5); test: MgcRacGAP GTPase-activating activity inhibitors, confirmation, biochemical, ADP Hunter fluorescence, primary and confirmatory (AID 624330); assay type: functional
# T2 sequence (Q9H0H5 whole entry): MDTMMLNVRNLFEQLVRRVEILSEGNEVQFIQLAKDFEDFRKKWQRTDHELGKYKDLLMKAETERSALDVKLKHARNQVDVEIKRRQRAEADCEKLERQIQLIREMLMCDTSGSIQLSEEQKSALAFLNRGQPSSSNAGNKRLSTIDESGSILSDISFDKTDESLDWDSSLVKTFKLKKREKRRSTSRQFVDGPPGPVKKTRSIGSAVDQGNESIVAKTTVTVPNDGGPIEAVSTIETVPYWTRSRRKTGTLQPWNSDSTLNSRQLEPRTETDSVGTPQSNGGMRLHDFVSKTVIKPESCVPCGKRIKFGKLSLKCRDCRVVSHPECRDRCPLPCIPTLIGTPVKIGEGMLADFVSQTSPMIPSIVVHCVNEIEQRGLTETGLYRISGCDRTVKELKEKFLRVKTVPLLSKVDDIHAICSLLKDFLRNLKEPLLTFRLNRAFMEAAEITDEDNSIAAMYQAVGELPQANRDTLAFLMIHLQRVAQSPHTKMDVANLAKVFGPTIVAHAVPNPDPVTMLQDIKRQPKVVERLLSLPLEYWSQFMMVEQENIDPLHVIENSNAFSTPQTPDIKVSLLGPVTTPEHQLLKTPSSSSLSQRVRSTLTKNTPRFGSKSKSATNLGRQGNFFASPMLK
# Protein RecA = biological target: T3, Protein RecA (Mycobacterium tuberculosis, UniProt P9WHJ3); test: Fluorescence Cell-Free Homogeneous Dose Retest to Identify Inhibitors of RecA-Intein Splicing Activity. [Related pubchem assays (depositor defined):AID2097, AID2223, AID489010, AID492950]; assay type: functional
# T3 sequence (P9WHJ3 whole entry): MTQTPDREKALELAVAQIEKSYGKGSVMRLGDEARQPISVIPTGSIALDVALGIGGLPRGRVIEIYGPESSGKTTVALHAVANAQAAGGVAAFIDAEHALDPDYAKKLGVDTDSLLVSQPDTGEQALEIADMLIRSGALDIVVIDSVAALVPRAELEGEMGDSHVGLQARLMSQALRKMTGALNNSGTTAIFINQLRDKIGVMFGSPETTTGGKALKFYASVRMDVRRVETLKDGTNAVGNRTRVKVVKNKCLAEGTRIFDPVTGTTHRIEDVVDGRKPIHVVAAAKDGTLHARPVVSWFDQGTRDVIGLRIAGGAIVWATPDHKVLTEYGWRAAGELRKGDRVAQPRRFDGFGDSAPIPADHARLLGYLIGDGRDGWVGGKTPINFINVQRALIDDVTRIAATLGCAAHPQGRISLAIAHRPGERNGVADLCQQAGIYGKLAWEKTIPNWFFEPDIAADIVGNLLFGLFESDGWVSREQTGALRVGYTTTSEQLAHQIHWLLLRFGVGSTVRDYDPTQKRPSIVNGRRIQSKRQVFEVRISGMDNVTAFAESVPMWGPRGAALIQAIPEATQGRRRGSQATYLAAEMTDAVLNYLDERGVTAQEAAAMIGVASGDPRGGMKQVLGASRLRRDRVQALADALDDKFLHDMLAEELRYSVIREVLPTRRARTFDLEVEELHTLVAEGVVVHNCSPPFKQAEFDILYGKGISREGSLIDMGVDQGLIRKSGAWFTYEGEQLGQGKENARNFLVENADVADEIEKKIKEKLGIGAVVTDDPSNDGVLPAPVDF
# [6] = biological target: Dual specificity tyrosine-phosphorylation-regulated kinase 1A (Rattus norvegicus, UniProt Q63470); assay type: biochemical, Homo sapiens
# [7] = HeLa cell cytotoxicity, dose response, cytotoxicity control for MgcRacGAP inhibitor project (AID 624300); assay type: functional
# cells [8] = assay type: functional, cell-based; remark: listed apart in the source
# [9] = C. albicans growth with fluconazole, confirmation, fluorescence, retest (AID 2467); assay type: functional, cell-based
# [10] = biological target: Cyclin-dependent kinase 5/CDK5 activator 1 (Homo sapiens, UniProt Q00535); test: CDK5/p35 kinase inhibitors, dose response, biochemical, cherry-picked samples, set 2 (AID 504545)
# Sequence of Cyclin-dependent kinase 5/CDK5 activator 1 (Q00535 whole entry): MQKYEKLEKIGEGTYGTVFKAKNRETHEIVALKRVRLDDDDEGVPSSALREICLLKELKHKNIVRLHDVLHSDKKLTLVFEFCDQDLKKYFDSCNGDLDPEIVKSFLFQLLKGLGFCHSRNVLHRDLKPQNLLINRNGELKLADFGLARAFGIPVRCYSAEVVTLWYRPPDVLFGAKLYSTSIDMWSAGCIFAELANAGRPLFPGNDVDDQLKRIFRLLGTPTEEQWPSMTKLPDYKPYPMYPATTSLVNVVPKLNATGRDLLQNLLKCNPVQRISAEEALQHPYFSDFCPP
# Sequence of Cyclin-dependent kinase 5/CDK5 activator 1 (Q15078 whole entry, further chain): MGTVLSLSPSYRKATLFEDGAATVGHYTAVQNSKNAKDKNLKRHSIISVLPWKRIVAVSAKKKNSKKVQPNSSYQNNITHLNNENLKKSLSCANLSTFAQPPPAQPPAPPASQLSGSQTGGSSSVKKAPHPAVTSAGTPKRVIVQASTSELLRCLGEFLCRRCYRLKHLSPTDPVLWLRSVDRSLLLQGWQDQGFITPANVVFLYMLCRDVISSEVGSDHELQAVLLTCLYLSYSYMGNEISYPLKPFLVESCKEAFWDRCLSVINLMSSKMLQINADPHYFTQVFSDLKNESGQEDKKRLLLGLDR
structure (smiles),measurement,setting,value
Oc1ccc(/C=N/Nc2ccc(C(F)(F)F)cn2)c(O)c1,AC50,[1],81.4 µM (active)
same,EC50,[2],> 150 µM (inactive)
same,AC50,[3],8.01 µM (active)
same,EC50,cells [4],44.7 µM (active)
same,IC50,[5],37 µM (active)
same,EC50,Protein RecA,110 µM (inconclusive)
same,AC50,[6],5.23 µM (active)
same,CC50,[7],100 µM (active)
same,EC50,cells [8],27.7 µM (active)
same,EC50,[9],> 38 µM (not active)
same,AC50,[10],11.8 µM (active)
